Test results published in patent US20210046071A1, “TETRACYCLIC COMPOUNDS AND THEIR SALTS, COMPOSITIONS, AND METHODS FOR THEIR USE” (Senhwa Biosciences, Inc., priority 2019, published 2021).

Tests used:
Assay type in all cases: cell-based
MV 4; 11 = assay: Alamar Blue cell viability assay, MV 4; 11; conditions: Homo sapiens, MV4-11, 11, Leukemia
Method: (§1) The effect of Compound I on cell viability was assessed by Alamar Blue assay of metabolic activity in various cancer cell lines.

RPMI-8226 = assay: Alamar Blue cell viability assay, RPMI-8226; conditions: Homo sapiens; RPMI-8226, Myeloma
Method: as §1

CCD-1094Sk = assay: Alamar Blue cell viability assay, CCD-1094Sk; conditions: Normal
Method: as §1

MOLT-3 = assay: Alamar Blue cell viability assay, MOLT-3; conditions: Homo sapiens; MOLT-3, Leukemia
Method: as §1

CCD-1096Sk = assay: Alamar Blue cell viability assay, CCD-1096Sk; conditions: Normal
Method: as §1

EC50 (RPMI-8226): 68 nM | EC50 (MOLT-3): 6 nM
Compound: Cc1cnc(CNC(=O)c2c(=O)c3ccc(N4CCCN(C)CC4)nc3n3c2sc2ccccc23)cn1 [Compound I, 2-(4-Methyl-[1,4]diazepan-1-yl)-5-oxo-5H-7-thia-1,11b-diaza-benzo[c]fluorene-6-carboxylic acid (5-methyl-pyrazin-2-ylmethyl)-amide]
EC50 (MV 4; 11): 12 nM | EC50 (CCD-1094Sk): 4810 nM | EC50 (CCD-1096Sk): 5260 nM
